This note sets out measurements from patent US20070232698A1, “Slimming Skin External Preparation and Cosmetic Containing the Same” (priority 2004, published 2007).

The subject of one data set is Mouse 3T3 adipocytes. Nature of the data set: Measurement of fat metabolic activity for mouse 3T3 adipocytes (free glycerol in culture medium). It counts as cell-based. To be noted: 250 μM test substance, medium recovered after 24 hours; control (none) = 100. As for the experimental part:
The five carnitine and carnitine derivatives 1) to 5) used in Example 1 were tested. The fat metabolic activity was measured and compared by quantitative determination of glycerol in the culture medium based on the fact that metabolism of the fat accumulated in adipocytes releases glycerol and free fatty acid to the culture medium.
Mouse 3T3 cells as the preadipocytes were disseminated on a 10 cm-diameter dish such that 1×10^4 cells were on the dish. […] Thereafter, the culture medium was replaced with a 10% FCS-containing DMEM culture medium that contained […] of dexamethasone, 0.5 mM of isobutylmethylxanthine and 10 μg/ml of insulin, and incubation was continued for another 2 days. Subsequently, the culture medium was replaced again with a 10% FCS-containing ordinary DMEM culture medium, and incubation was performed for another week, resulting in differentiation of the preadipocytes into adipocytes. Next, the culture medium was replaced with an ordinary culture medium that contained 250 μM of the carnitine or carnitine derivative of the five substances 1) to 5) used in Example 1, and the culture medium was recovered after 24 hours. The cells were washed with Dulbecco's PBS (−) and were recovered. Cells incubated in the absence of the test substances were used as the control. The glycerol content in the culture medium was quantitatively determined using Glycerol Test E Wako (Wako Pure Chemical Industries, Ltd.).
The fat metabolic activity for mouse 3T3 adipocytes was determined based on the free glycerol content in the same manner as in Example 2, except that the two carnitine and carnitine derivative 1) and 6) used in Example 4 were tested.
The fat metabolic activity for mouse 3T3 adipocytes was determined based on the free glycerol content in the same manner as in Example 2, except that the three carnitine and carnitine derivatives 1), 7) and 8) used in Example 7 were tested.

Data set [1] has as its system skin together with subcutaneous fat tissues. Kind of data set: Subcutaneous fat breakdown test (rat abdominal skin with subcutaneous fat in Franz diffusion cell). To be noted: lower cell PBS (−), 37° C., average of three measurements, control (none) 20. As for the experimental part: A male Wister rat, 10 weeks old, was shaved on the abdomen, and the skin was removed together with subcutaneous fat tissues and was placed in a Franz diffusion cell. An upper cell on the skin surface was filled with a buffer solution containing the Example 1 test substance, and a lower cell was filled with Dulbecco's PBS (−). The diffusion cell was held at 37° C. and was allowed to stand for 8 or 16 hours. After the lapse of each of the standing times, PBS (−) was withdrawn from the lower cell. The content of free glycerol resulting from the fat breakdown was measured with use of Glycerol Test E Wako. The results are averages of three measurements.
The free glycerol contents were measured in the same manner as in Example 3, except that the two carnitine and carnitine derivative 1) and 6) used in Example 4 were tested. The results are averages of three measurements.
The free glycerol contents were measured in the same manner as in Example 3, except that the three carnitine and carnitine derivatives 1), 7) and 8) used in Example 7 were tested. The results are averages of three measurements.

Data set [2] has as its system human skin tissue three dimensional model (TESTSKIN LSD-d).
Experimental: The test substances were each dissolved in Dulbecco's PBS (−) to give a 1% by mass solution of the test substance. The test substance solutions were placed, each 50 μL, to a tissue surface of human skin tissue three dimensional model (TESTSKIN™ LSD-d, available from TOYOBO CO., LTD.), and were incubated at 37° C. in a 5% CO2 atmosphere for 2 hours. Thereafter the test substance solutions were aspirated out, and the skin models were further incubated at 37° C. in a 5% CO2 atmosphere for 2, 6 or 12 hours. The skin models were sampled after the lapse of each of the incubation times. The skin models sampled at the incubation times were washed with Dulbecco's PBS (−), and the tissue surfaces on which the test substances had been placed were punched out with a punch 6 mm in diameter. The skin models were then homogenated in a HEPES buffer solution (pH: 7.2), and were quantitatively analyzed using a high performance liquid chromatography to determine the carnitine content in the skin model.
From the analysis results, the carnitine contents in the skin models (unit: nmol/mg skin protein) were obtained for the test substances at each of the incubation times.

Molecules are shown by their SMILES.

As for `CCCCCC(=O)O[C@H](CC(=O)O)C[N+](C)(C)C.[Cl-]` [Test substance 2), Hexanoyl-L-carnitine hydrochloride], the “Free glycerol content (% relative to the control)” value in the data set with Mouse 3T3 adipocytes is reported as 155 % relative to the control. In data set [1], the “Free glycerol, After 8 hours” value came out at 116 µmol/mL and the “Free glycerol, After 16 hours” value came out at 138 µmol/mL. Further, in data set [2], the “carnitine content in the skin model, After 2-hour incubation” value amounted to 7 nmol/mg skin protein; the “carnitine content in the skin model, After 6-hour incubation” value amounted to 14 nmol/mg skin protein; the “carnitine content in the skin model, After 12-hour incubation” value is recorded as 21 nmol/mg skin protein.

With `CCCCCCCCCCCCCC(=O)O[C@H](CC(=O)O)C[N+](C)(C)C.[Cl-]` [Test substance 3), Tetradecanoyl-L-carnitine hydrochloride], in the data set on Mouse 3T3 adipocytes, the “Free glycerol content (% relative to the control)” value is recorded as 168 % relative to the control. Further, in data set [1], the “Free glycerol, After 8 hours” value was 112 µmol/mL and the “Free glycerol, After 16 hours” value was 146 µmol/mL. In data set [2], the “carnitine content in the skin model, After 2-hour incubation” value is given as 6 nmol/mg skin protein; the “carnitine content in the skin model, After 6-hour incubation” value was found to be 12 nmol/mg skin protein; the “carnitine content in the skin model, After 12-hour incubation” value is reported as 22 nmol/mg skin protein.

Take `CCCCCCCCCCCCCCCC(=O)O[C@H](CC(=O)O)C[N+](C)(C)C.[Cl-]` [Test substance 4), Hexadecanoyl-L-carnitine hydrochloride]: the “Free glycerol content (% relative to the control)” value with Mouse 3T3 adipocytes is listed as 180 % relative to the control. For the same compound, in data set [1], the “Free glycerol, After 8 hours” value worked out at 125 µmol/mL and the “Free glycerol, After 16 hours” value worked out at 170 µmol/mL. In addition, in data set [2], the “carnitine content in the skin model, After 2-hour incubation” value came to 6 nmol/mg skin protein; the “carnitine content in the skin model, After 6-hour incubation” value amounted to 10 nmol/mg skin protein; the “carnitine content in the skin model, After 12-hour incubation” value was 23 nmol/mg skin protein.

On to `CCCCCCCCCCCCCCCCCC(=O)O[C@H](CC(=O)O)C[N+](C)(C)C.[Cl-]` [Test substance 5), Octadecanoyl-L-carnitine hydrochloride], for which the “Free glycerol content (% relative to the control)” value with Mouse 3T3 adipocytes is 176 % relative to the control. Besides, in data set [1], the “Free glycerol, After 8 hours” value worked out at 117 µmol/mL and the “Free glycerol, After 16 hours” value stood at 158 µmol/mL. In addition, in data set [2], the “carnitine content in the skin model, After 2-hour incubation” value stood at 5 nmol/mg skin protein; the “carnitine content in the skin model, After 6-hour incubation” value is listed as 10 nmol/mg skin protein; the “carnitine content in the skin model, After 12-hour incubation” value amounted to 25 nmol/mg skin protein.
